Data from patent US8835377B2, “Oral delivery of peptide pharmaceutical compositions” (UGP Therapeutics, Inc., priority 2004, dated 2014).
Read-outs that look alike come from different tables or passages of the source.

Experiment: Pharmacokinetics after duodenal injection of unformulated or formulated Dmt-DALDA in anesthetized rats (plasma, HPLC-UV)
Assay type: in vivo
Conditions: for Tmax / Cmax / AUC: Unformulated; for Cmax / AUC: rat; for AUC: trapezoidal rule; for Dmt-DALDA plasma concentration: unformulated
Procedure: In the experiments represented in the subject Figure, six anesthetized rats (which were color-coded as: red, white, blue, orange, green and yellow) were given 0.7 mL Dmt-DALDA (1.6 mg/mL) with a syringe through a 27 gauge needle into the duodenum. This injection procedure was followed due to the technical difficulty inherent in preparing capsules which can be swallowed by small animals the size of a rat. The intraduodanal injection, therefore, mimics the release of the components of an enteric-coated capsule formulation which would pass through the esophagus and stomach and release its contents in the duodenum. Three of the rats (red, white and blue) were given Unformulated Dmt-DALDA in which there were no additional components (i.e., other than the Dmt-DALDA), while the other three rats (orange, green and yellow) were given Formulated Dmt-DALDA which included, in addition to the Dmt-DALDA, 0.5M citric acid and lauroyl carnitine (10 mg/ml). Samples of blood were taken from the carotid artery through an indwelling catheter before and 5, 15, 30, 60 and 120 minutes after the administration of the respective formulations (i.e., Formulated and Unformulated). The blood samples were centrifuged and the resulting plasma supernatants were stored frozen at −20° C. […] Peptide was detected with an ultraviolet (UV) detector set at a wavelength of 210 nm. […] Table I, moreover, provides the standard deviations for the data obtained regarding each of the test rats, which standard deviations are also indicated in FIG. 1.
Table II (below) summarizes the pharmacokinetic parameters in rats of orally administered unformulated and formulated Dmt-DALDA as those terms are defined above. Cmax refers to the maximum concentration of peptide detected in the rat plasma. The area under the curve (AUC) is a measure of the extent of peptide absorption and is calculated by the trapezoidal rule from a plot of peptide concentration as a function of time. Tmax indicates when the maximum concentration of the Dmt-DALDA in the blood serum was obtained.

Cc1cc(O)cc(C)c1C[C@H](N)C(=O)N[C@H](CCCNC(=N)N)C(=O)N[C@@H](Cc1ccccc1)C(=O)N[C@@H](CCCCN)C(N)=O [unformulated]
1540 ng/mL: Cmax (in vivo, 1.12 mg, Red rat)
510 ng/mL: Cmax (in vivo, 1.12 mg, Avg (n = 3))
5.00 min: Tmax (Avg (n = 3))
5 min: Tmax (in vivo, 1.12 mg, Red rat, read-out: Tmax (converted))
64 ng·h/mL: AUC (in vivo, 1.12 mg, Avg (n = 3))
192 ng·h/mL: AUC (in vivo, 1.12 mg, Red rat)
0.00 µg/mL: Dmt-DALDA plasma concentration (avg of rats, 0 min) | Dmt-DALDA plasma concentration (avg of rats, 15 min) | Dmt-DALDA plasma concentration (avg of rats, 30 min) | Dmt-DALDA plasma concentration (avg of rats, 60 min) | Dmt-DALDA plasma concentration (avg of rats, 120 min) | Dmt-DALDA plasma concentration (blue rat, 0 min) | Dmt-DALDA plasma concentration (blue rat, 5 min) | Dmt-DALDA plasma concentration (blue rat, 15 min) | Dmt-DALDA plasma concentration (blue rat, 30 min) | Dmt-DALDA plasma concentration (blue rat, 60 min) | Dmt-DALDA plasma concentration (blue rat, 120 min) | Dmt-DALDA plasma concentration (red rat, 0 min) | Dmt-DALDA plasma concentration (red rat, 15 min) | Dmt-DALDA plasma concentration (red rat, 30 min) | Dmt-DALDA plasma concentration (red rat, 60 min) | Dmt-DALDA plasma concentration (red rat, 120 min) | Dmt-DALDA plasma concentration (white rat, 0 min) | Dmt-DALDA plasma concentration (white rat, 5 min) | Dmt-DALDA plasma concentration (white rat, 15 min) | Dmt-DALDA plasma concentration (white rat, 30 min) | Dmt-DALDA plasma concentration (white rat, 60 min) | Dmt-DALDA plasma concentration (white rat, 120 min)
virtually undetectable: Dmt-DALDA detected in plasma (rats given unformulated Dmt-DALDA)
